We go through three compounds from patent US12186467B2, “Cleaning of biological fluid” (GAMBRO LUNDIA AB, priority 2012, dated 2025).

Data set [1] concerns the target T1, bovine serum albumin (BSA) (Bos taurus, UniProt P02769).
T1 construct: purchased Sigma-Aldrich
The experiment in a line: Removal of p-cresol from BSA by repeated addition of water and centrifugation. Conditions: pH 8. Type of data set: binding. The protocol:
The influence of water addition on the binding affinity of p-cresol to bovine serum albumin was investigated in this example, performed at room temperature. 1 ml of a solution comprising 0.02 mg/ml p-cresol and 40 mg/ml bovine serum albumin (BSA) was centrifuged (Visaspin®) for 20 minutes. 0.5 ml of the solution was removed and analysed.
0.5 ml water (Milli-Q quality) was added to the remaining 0.5 ml solution (p-cresol and BSA) and centrifuged (in Vivaspin®) for another 20 minutes before another 0.5 ml was removed for the analysis.
The previous experiment was repeated at elevated temperature. A 1 ml solution containing 0.02 mg/ml p-cresol and 40 mg/ml bovine serum albumin (BSA), pH 8, was centrifuged (Vivaspin®) at 50° C. for 20 minutes until 0.5 ml was removed and analysed. Then 0.5 ml water (Milli-Q) was added to the remaining 0.5 ml solution comprising p-cresol and BSA, centrifuged for 20 minutes until 0.5 ml was removed for the analysis.

A short description of data set [2]: Precipitation observed in displacer/BSA/p-cresol solutions. In kind it is physicochemical. The protocol:
The mixed solutions were centrifuged to remove protein at 5700 rpm for 70 minutes at room temperature before analysis. The pH was adjusted to 7 (physiological pH) by addition of NaOH to the samples. The samples were injected into a HPLC. The measurement of p-cresol by HPLC analysis was performed at room temperature.
The influence of the pH value on the binding affinity of the p-cresol and the binding competitors to the bovine serum albumin (BSA) was investigated. […] The pH was adjusted by adding sodium hydroxide (NaOH) or hydrochloric acid (HCl). The tests were performed with the following displacer substances: sodium salicylate, sodium octanoate and sodium acetylsalicylate. […] At pH 5 the albumin exists in the N form. The results are present in Table 4

The structures appear in SMILES notation.

T1 sequence (P02769 25-607): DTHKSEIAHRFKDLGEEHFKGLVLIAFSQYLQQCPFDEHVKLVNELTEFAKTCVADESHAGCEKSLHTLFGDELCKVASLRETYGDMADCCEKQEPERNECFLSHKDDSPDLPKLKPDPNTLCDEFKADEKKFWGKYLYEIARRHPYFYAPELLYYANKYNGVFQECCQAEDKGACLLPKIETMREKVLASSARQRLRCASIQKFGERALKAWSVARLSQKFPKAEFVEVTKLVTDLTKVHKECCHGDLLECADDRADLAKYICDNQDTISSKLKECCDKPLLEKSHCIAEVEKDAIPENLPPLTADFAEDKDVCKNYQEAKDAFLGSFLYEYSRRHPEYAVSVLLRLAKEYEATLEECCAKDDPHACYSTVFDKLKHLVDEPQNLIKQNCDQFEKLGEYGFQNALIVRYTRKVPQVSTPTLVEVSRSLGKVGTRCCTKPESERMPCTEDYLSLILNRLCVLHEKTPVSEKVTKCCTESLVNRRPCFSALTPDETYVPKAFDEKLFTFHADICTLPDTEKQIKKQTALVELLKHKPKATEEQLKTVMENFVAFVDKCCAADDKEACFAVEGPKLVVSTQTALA

Consider `Cc1ccc(O)cc1` [p-cresol], for which the p-cresol considered unbound result in data set [1] (after addition of 5 ml water, 50° C.) is recorded as “About 100%”. In addition, the “added p-cresol removed from the binding sites on BSA” value in data set [1] (water addition repeated 16 times, room temperature) is roughly 100%. The “calculated amount of p-cresol removed” value in data set [1] (water addition repeated 16 times, room temperature, 0.02 mg p-cresol added) was 0.01989 mg. For the same compound, the “measured amount of p-cresol” value in data set [1] (water addition repeated 20 times, 50° C., more than the added amount) is recorded as 0.027 mg.
Take `CCCCCCCC(=O)[O-].[Na+]` [sodium octanoate]: the precipitation result is listed as “Precipitation occurred” in data set [2] (sodium octanoate 100 mg/ml and 200 mg/ml, pH 6); “precipitation of the solution was observed” in data set [2] (sodium octanoate with BSA and p-cresol, pH 5).
On to `O=C([O-])c1ccccc1O.[Na+]` [sodium salicylate], for which the precipitation result in data set [2] (sodium salicylate with BSA and p-cresol, pH 4) is given as “precipitation occurred”.
